# Laboratory results published in US20250230193A1, “CYCLIC COMPOUND HAVING SELECTIVE KRAS INHIBITORY EFFECT ON HRAS AND NRAS” (CHUGAI SEIYAKU KABUSHIKI KAISHA, priority 2022, published 2025).
# Assays:
# [1] = biological target: GDP-bound NRAS wild-type protein (Homo sapiens, UniProt P01111); test: Binding to NRAS by surface plasmon resonance (SPR), Single Cycle Kinetics; conditions: KD ratio NRAS/KRAS, class symbols
# [2] = biological target: GDP-bound HRAS wild-type protein (Homo sapiens, UniProt P01112); test: Binding to HRAS by surface plasmon resonance (SPR), Single Cycle Kinetics; conditions: KD ratio HRAS/KRAS, class symbols
# GDP-bound HRAS wild-type protein, sequence (P01112 whole entry): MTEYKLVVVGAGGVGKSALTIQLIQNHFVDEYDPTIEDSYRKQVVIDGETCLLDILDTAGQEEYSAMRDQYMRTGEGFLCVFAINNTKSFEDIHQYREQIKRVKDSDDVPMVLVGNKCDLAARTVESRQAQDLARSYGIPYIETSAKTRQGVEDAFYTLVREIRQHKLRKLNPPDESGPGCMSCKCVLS
# GDP-bound NRAS wild-type protein, sequence (P01111 whole entry): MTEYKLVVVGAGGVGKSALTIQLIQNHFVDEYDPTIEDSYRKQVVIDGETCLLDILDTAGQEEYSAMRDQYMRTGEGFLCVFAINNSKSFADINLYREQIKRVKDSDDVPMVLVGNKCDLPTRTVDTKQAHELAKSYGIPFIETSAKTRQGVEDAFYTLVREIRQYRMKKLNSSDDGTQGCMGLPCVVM
Compound,NRAS/KRAS (ratio of KD value with respect to GDP-bound NRAS wild-type protein to KD value with respect to KRAS) [1],HRAS/KRAS (ratio of KD value with respect to GDP-bound HRAS wild-type protein to KD value with respect to KRAS) [2]
CCC[C@H]1C(=O)N[C@@H](CC(C)C)C(=O)N(CC)CC(=O)N(C)[C@H]2C/C=C\CCN(C2=O)[C@@H](Cc2ccc(C)cc2)C(=O)N(C)CC(=O)N[C@@H](CCc2ccc(C(F)(F)F)c(Cl)c2)C(=O)N2C[C@H](OCC)C[C@H]2C(=O)NC2(CC(C)(C)C2)C(=O)N(C)[C@@H](C2CCCC2)C(=O)N(C)[C@H](C(=O)N(C)C)CC(=O)N1C [PP2528],A (a compound having 10 or more and less than 20 is denoted as A),B (a compound having 3 or more and less than 10 is denoted as B)
CCC[C@H]1C(=O)N[C@@H]([C@@H](C)CC)C(=O)N(C2CC2)CC(=O)N(C)[C@H]2C/C=C\CCN(C2=O)[C@@H](Cc2ccc(C(F)F)cc2)C(=O)N(C)CC(=O)N[C@@H](CCc2cc(F)c(C(F)(F)F)c(F)c2)C(=O)N2C[C@H](OC(C)C)C[C@H]2C(=O)NC2(CC(C)(C)C2)C(=O)N(C)[C@@H](C(CC)CC)C(=O)N(C)[C@H](C(=O)N(C)C)CC(=O)N1C [PP2529],AA (a compound having 20 or more is denoted as AA),A (a compound having 10 or more and less than 20 is denoted as A)
CCC[C@H]1C(=O)N[C@@H]([C@@H](C)CC)C(=O)N(C)CC(=O)N(C)[C@H]2C/C=C\CCN(C2=O)[C@@H](Cc2ccc(C(F)F)cc2)C(=O)N(C)CC(=O)N[C@@H](CCc2ccc(Cl)c(Cl)c2)C(=O)N2C[C@H](OCC)C[C@H]2C(=O)NC2(CC(C)(C)C2)C(=O)N(C)[C@@H](C(CC)CC)C(=O)N(C)[C@H](C(=O)N(C)C)CC(=O)N1C [PP2531],AA (a compound having 20 or more is denoted as AA),A (a compound having 10 or more and less than 20 is denoted as A)
CCC[C@H]1C(=O)N[C@@H](CC(C)C)C(=O)N(C2CC2)CC(=O)N(C)[C@H]2C/C=C\CCN(C2=O)[C@@H](Cc2ccc(C)cc2)C(=O)N(C)CC(=O)N[C@@H](CCc2cc(F)c(C(F)(F)F)c(F)c2)C(=O)N2C[C@H](OCC)C[C@H]2C(=O)NC2(CCC2)C(=O)N(C)[C@@H](C2CCCC2)C(=O)N(C)[C@H](C(=O)N(C)C)CC(=O)N1C [PP2532],A (a compound having 10 or more and less than 20 is denoted as A),B (a compound having 3 or more and less than 10 is denoted as B)
CCC(CC)[C@H]1C(=O)N(C)[C@H](C(=O)N(C)C)CC(=O)N(C)[C@@H](COC)C(=O)N[C@@H]([C@@H](C)CC)C(=O)N(C)CC(=O)N(C)[C@H]2C/C=C\CCN(C2=O)[C@@H](Cc2ccc(C(F)(F)F)cc2)C(=O)N(C)CC(=O)N[C@@H](CCc2ccc(Cl)c(Cl)c2)C(=O)N2C[C@H](OC(C)C)C[C@H]2C(=O)NC2(CC(C)(C)C2)C(=O)N1C [PP2533],AA (a compound having 20 or more is denoted as AA),A (a compound having 10 or more and less than 20 is denoted as A)
CCC[C@H]1C(=O)N[C@@H](CC(C)C)C(=O)N(C2CC2)CC(=O)N(C)[C@H]2C/C=C\CCN(C2=O)[C@@H](Cc2ccc(C)cc2)C(=O)N(C)CC(=O)N[C@@H](CCc2ccc(C(F)(F)F)c(OC)c2)C(=O)N2C[C@H](OCC)C[C@H]2C(=O)NC2(CCC2)C(=O)N(C)[C@@H](C2CCCC2)C(=O)N(C)[C@H](C(=O)N(C)C)CC(=O)N1C [PP2534],A (a compound having 10 or more and less than 20 is denoted as A),B (a compound having 3 or more and less than 10 is denoted as B)
CCC[C@H]1C(=O)N[C@@H]([C@@H](C)CC)C(=O)N(C)CC(=O)N(C)[C@H]2C/C=C\CCN(C2=O)[C@@H](Cc2ccc(C(F)F)cc2)C(=O)N(C)CC(=O)N[C@@H](CCc2ccc(Cl)c(Cl)c2)C(=O)N2C[C@H](OC(C)C)C[C@H]2C(=O)NC2(CC(C)(C)C2)C(=O)N(C)[C@@H](C(CC)CC)C(=O)N(C)[C@H](C(=O)N(C)C)CC(=O)N1C [PP2535],AA (a compound having 20 or more is denoted as AA),A (a compound having 10 or more and less than 20 is denoted as A)
C#CCN1CC(=O)N(C)[C@H]2C/C=C\CCN(C2=O)[C@@H](Cc2ccc(C)cc2)C(=O)N(C)CC(=O)N[C@@H](CCc2cc(F)c(C(F)(F)F)c(F)c2)C(=O)N2C[C@H](OCC)C[C@H]2C(=O)NC2(CCC2)C(=O)N(C)[C@@H](C2CCCC2)C(=O)N(C)[C@H](C(=O)N(C)C)CC(=O)N(C)[C@@H](CCC)C(=O)N[C@@H](CC(C)C)C1=O [PP2536],A (a compound having 10 or more and less than 20 is denoted as A),B (a compound having 3 or more and less than 10 is denoted as B)
CCC[C@H]1C(=O)N[C@@H]([C@@H](C)CC)C(=O)N(C)CC(=O)N(C)[C@H]2C/C=C\CCN(C2=O)[C@@H](Cc2ccc(C)cc2)C(=O)N(C)CC(=O)N[C@@H](CCc2ccc(Cl)c(Cl)c2)C(=O)N2C[C@H](OC(C)C)C[C@H]2C(=O)NC2(CC(C)(C)C2)C(=O)N(C)[C@@H](C(CC)CC)C(=O)N(C)[C@H](C(=O)N(C)C)CC(=O)N1C [PP2537],AA (a compound having 20 or more is denoted as AA),A (a compound having 10 or more and less than 20 is denoted as A)
CCC[C@H]1C(=O)N[C@@H](CC(C)C)C(=O)N(CC)CC(=O)N(C)[C@H]2C/C=C\CCN(C2=O)[C@@H](Cc2ccc(C)cc2)C(=O)N(C)CC(=O)N[C@@H](CCc2cc(F)c(C(F)(F)F)c(F)c2)C(=O)N2C[C@H](OCC)C[C@H]2C(=O)NC2(CCC2)C(=O)N(C)[C@@H](C2CCCC2)C(=O)N(C)[C@H](C(=O)N(C)C)CC(=O)N1C [PP2539],A (a compound having 10 or more and less than 20 is denoted as A),B (a compound having 3 or more and less than 10 is denoted as B)
CCC[C@H]1C(=O)N[C@@H](CC(C)C)C(=O)N(CC)CC(=O)N(C)[C@H]2C/C=C\CCN(C2=O)[C@@H](Cc2ccc(C)cc2)C(=O)N(C)CC(=O)N[C@@H](CCc2ccc(C(F)(F)F)c(OC)c2)C(=O)N2C[C@H](OCC)C[C@H]2C(=O)NC2(CCC2)C(=O)N(C)[C@@H](C2CCCC2)C(=O)N(C)[C@H](C(=O)N(C)C)CC(=O)N1C [PP2540],A (a compound having 10 or more and less than 20 is denoted as A),B (a compound having 3 or more and less than 10 is denoted as B)
CCC[C@H]1C(=O)N[C@@H](CC(C)C)C(=O)N(CCOC)CC(=O)N(C)[C@H]2C/C=C\CCN(C2=O)[C@@H](Cc2ccc(C)cc2)C(=O)N(C)CC(=O)N[C@@H](CCc2cc(F)c(C(F)(F)F)c(F)c2)C(=O)N2C[C@H](OCC)C[C@H]2C(=O)NC2(CCC2)C(=O)N(C)[C@@H](C2CCCC2)C(=O)N(C)[C@H](C(=O)N(C)C)CC(=O)N1C [PP2541],A (a compound having 10 or more and less than 20 is denoted as A),B (a compound having 3 or more and less than 10 is denoted as B)
CCC[C@H]1C(=O)N[C@@H](CC(C)C)C(=O)N(CCOC)CC(=O)N(C)[C@H]2C/C=C\CCN(C2=O)[C@@H](Cc2ccc(C)cc2)C(=O)N(C)CC(=O)N[C@@H](CCc2ccc(C(F)(F)F)c(OC)c2)C(=O)N2C[C@H](OCC)C[C@H]2C(=O)NC2(CCC2)C(=O)N(C)[C@@H](C2CCCC2)C(=O)N(C)[C@H](C(=O)N(C)C)CC(=O)N1C [PP2542],B (a compound having 3 or more and less than 10 is denoted as B),B (a compound having 3 or more and less than 10 is denoted as B)
CCC[C@H]1C(=O)N[C@@H](CC(C)C)C(=O)N(CC)CC(=O)N(C)[C@H]2C/C=C\CCN(C2=O)[C@@H](Cc2ccc(C)cc2)C(=O)N(C)CC(=O)N[C@@H](CCc2ccc(C(F)(F)F)c(Cl)c2)C(=O)N2C[C@H](OCC)C[C@H]2C(=O)NC2(CCC2)C(=O)N(C)[C@@H](C2CCCC2)C(=O)N(C)[C@H](C(=O)N(C)C)CC(=O)N1C [PP2545],A (a compound having 10 or more and less than 20 is denoted as A),A (a compound having 10 or more and less than 20 is denoted as A)
CCC[C@H]1C(=O)N[C@@H](CC(C)C)C(=O)N(CCOC)CC(=O)N(C)[C@H]2C/C=C\CCN(C2=O)[C@@H](Cc2ccc(C)cc2)C(=O)N(C)CC(=O)N[C@@H](CCc2ccc(C(F)(F)F)c(Cl)c2)C(=O)N2C[C@H](OCC)C[C@H]2C(=O)NC2(CCC2)C(=O)N(C)[C@@H](C2CCCC2)C(=O)N(C)[C@H](C(=O)N(C)C)CC(=O)N1C [PP2546],B (a compound having 3 or more and less than 10 is denoted as B),B (a compound having 3 or more and less than 10 is denoted as B)
CCC[C@H]1C(=O)N[C@@H](CC(C)C)C(=O)N2C[C@@H](OC)C[C@H]2C(=O)N(C)[C@H]2C/C=C\CCN(C2=O)[C@@H](Cc2ccc(C)cc2)C(=O)N(C)CC(=O)N[C@@H](CCc2cc(F)c(C(F)(F)F)c(F)c2)C(=O)N2C[C@H](OCC)C[C@H]2C(=O)NC2(CCC2)C(=O)N(C)[C@@H](C2CCCC2)C(=O)N(C)[C@H](C(=O)N(C)C)CC(=O)N1C [PP2547],A (a compound having 10 or more and less than 20 is denoted as A),B (a compound having 3 or more and less than 10 is denoted as B)
